Test results from US6376518B1, “Acyl derivatives of 4-demethylpenclomedine, use thereof and preparation thereof” (Southern Research Institute, priority 1999, dated 2002).
Read-outs that look alike come from different tables or passages of the source.

Experiments:
P388/BCNU leukemia = test: Antitumor activity against IP-implanted P388/BCNU leukemia in mice; details: P388/BCNU, Q1D × 1 (1); for MEDIAN DAY OF DEATH: dying mice only
P388/0 leukemia = details: P388/0, Q1D × 1 (1); for MEDIAN DAY OF DEATH: dying mice only
P388/CPA leukemia = test: Antitumor activity against IP-implanted P388/CPA leukemia in mice; assay type: in vivo, murine; details: P388/CPA, Q1D × 1 (1); for MEDIAN DAY OF DEATH: dying mice only
human MX-1 mammary tumor [1] = test: In vivo antitumor activity vs i.c.-implanted human MX-1 mammary tumor xenograft in athymic mice; details: ic MX-1, Days 1-5
human MX-1 mammary tumor [2] = test: In vivo antitumor activity vs s.c.-implanted human MX-1 mammary tumor xenograft in athymic mice; details: for T-C / Tumor-Free-Surv/Total: sc MX-1; for antitumor activity (in words): MX-1 implanted s.c. or i.c.
[3] = oral (gavage) 135 mg/kg/dose, Days 13-17
[4] = oral (gavage) 135 mg/kg/dose, Days 12-16

O=NN(CCCl)C(=O)NCCCl [BCNU (carmustine), carmustine]
50-DAY SURV/TOTAL (P388/BCNU leukemia; IP 20.0 mg/kg/dose): 0/6
% ILS (P388/BCNU leukemia; IP 20.0 mg/kg/dose): 0%
APPROX. NET LOG10 CHANGE IN TUMOR BURDEN AT END OF Rx (P388/BCNU leukemia; IP 20.0 mg/kg/dose): 0
MEDIAN DAY OF DEATH (P388/BCNU leukemia; IP 20.0 mg/kg/dose): 9.0
50-DAY SURV/TOTAL (P388/BCNU leukemia; IP 30.0 mg/kg/dose): 0/6
% ILS (P388/BCNU leukemia; IP 30.0 mg/kg/dose): −6%
APPROX. NET LOG10 CHANGE IN TUMOR BURDEN AT END OF Rx (P388/BCNU leukemia; IP 30.0 mg/kg/dose): +0.4
MEDIAN DAY OF DEATH (P388/BCNU leukemia; IP 30.0 mg/kg/dose): 8.5
50-DAY SURV/TOTAL (P388/0 leukemia; IP 20.0 mg/kg/dose): 3/6
APPROX. NET LOG10 CHANGE IN TUMOR BURDEN AT END OF Rx (P388/0 leukemia; IP 20.0 mg/kg/dose): ca −8.8
MEDIAN DAY OF DEATH (P388/0 leukemia; IP 20.0 mg/kg/dose): 27.0
50-DAY SURV/TOTAL (P388/0 leukemia; IP 30.0 mg/kg/dose): 6/6

O=P1(N(CCCl)CCCl)NCCCO1 (stereo not drawn) [CPA (cyclophosphamide), cyclophosphamide]
50-DAY SURV/TOTAL (P388/CPA leukemia; IP 175.0 mg/kg/dose): 0/6
% ILS (P388/CPA leukemia; IP 175.0 mg/kg/dose): +9%
APPROX. NET LOG10 CHANGE IN TUMOR BURDEN AT END OF Rx (P388/CPA leukemia; IP 175.0 mg/kg/dose): −0.6
MEDIAN DAY OF DEATH (P388/CPA leukemia; IP 175.0 mg/kg/dose): 12.0
50-DAY SURV/TOTAL (P388/CPA leukemia; IP 265.0 mg/kg/dose): 0/6
% ILS (P388/CPA leukemia; IP 265.0 mg/kg/dose): +27%
APPROX. NET LOG10 CHANGE IN TUMOR BURDEN AT END OF Rx (P388/CPA leukemia; IP 265.0 mg/kg/dose): −1.7
MEDIAN DAY OF DEATH (P388/CPA leukemia; IP 265.0 mg/kg/dose): 14.0
50-DAY SURV/TOTAL (P388/0 leukemia; IP 175.0 mg/kg/dose): 1/6
APPROX. NET LOG10 CHANGE IN TUMOR BURDEN AT END OF Rx (P388/0 leukemia; IP 175.0 mg/kg/dose): ca −8.8
MEDIAN DAY OF DEATH (P388/0 leukemia; IP 175.0 mg/kg/dose): 30.0
50-DAY SURV/TOTAL (P388/0 leukemia; IP 265.0 mg/kg/dose): 6/6

COc1nc(C(Cl)(Cl)Cl)c(Cl)c(OC(=O)COC(C)=O)c1Cl [DM-AA-PEN]
Median % ILS (dying mice only) (human MX-1 mammary tumor [1]; IP 135 mg/kg/dose): +67%
Tumor-Free-Surv/Total (human MX-1 mammary tumor [1]; IP 135 mg/kg/dose): 0/5
Tumor-Free-Surv/Total (human MX-1 mammary tumor [1]; oral (gavage) 135 mg/kg/dose): 2/5

C=CC(=O)Oc1c(Cl)c(OC)nc(C(Cl)(Cl)Cl)c1Cl [DM-AC-PEN]
T-C (human MX-1 mammary tumor [2]; IP 60 mg/kg/dose, Days 12-16): 30.0 days
Tumor-Free-Surv/Total (human MX-1 mammary tumor [2]; IP 60 mg/kg/dose, Days 12-16): 1/5
Median % ILS (dying mice only) (human MX-1 mammary tumor [1]; IP 60 mg/kg/dose): +55%

COc1nc(C(Cl)(Cl)Cl)c(Cl)c(OC(=O)c2ccccc2)c1Cl [DM-B-PEN]
antitumor activity (in words) (human MX-1 mammary tumor [2]; i.p. administration): high activity
antitumor activity (in words) (human MX-1 mammary tumor [2]; oral drug treatment): low antitumor activity
Tumor-Free-Surv/Total (human MX-1 mammary tumor [2]; IP 135 mg/kg/dose, Days 11-15): 5/5
T-C (human MX-1 mammary tumor [2]; [3]): -1.4 days
Tumor-Free-Surv/Total (human MX-1 mammary tumor [2]; [3]): 0/5
Median % ILS (dying mice only) (human MX-1 mammary tumor [1]; IP 135 mg/kg/dose): +84%
Median % ILS (dying mice only) (human MX-1 mammary tumor [1]; oral (gavage) 135 mg/kg/dose): +12%

COc1nc(C(Cl)(Cl)Cl)c(Cl)c(OC(=O)CBr)c1Cl [DM-BA-PEN]
T-C (human MX-1 mammary tumor [2]; IP 135 mg/kg/dose, Days 12-16): >41.0 days
Tumor-Free-Surv/Total (human MX-1 mammary tumor [2]; IP 135 mg/kg/dose, Days 12-16): 2/5

COc1nc(C(Cl)(Cl)Cl)c(Cl)c(OC(=O)CCl)c1Cl [DM-CA-PEN]
T-C (human MX-1 mammary tumor [2]; IP 60 mg/kg/dose, Days 12-16): >41.0 days
Tumor-Free-Surv/Total (human MX-1 mammary tumor [2]; IP 60 mg/kg/dose, Days 12-16): 3/5
T-C (human MX-1 mammary tumor [2]; [4]): >41.0 days
Tumor-Free-Surv/Total (human MX-1 mammary tumor [2]; [4]): 5/5
Median % ILS (dying mice only) (human MX-1 mammary tumor [1]; oral (gavage) 135 mg/kg/dose): +84%

COc1nc(C(Cl)(Cl)Cl)c(Cl)c(OC(=O)c2ccc(CCl)cc2)c1Cl [DM-CMB-PEN]
Median % ILS (dying mice only) (human MX-1 mammary tumor [1]; IP 90 mg/kg/dose): +73%
Tumor-Free-Surv/Total (human MX-1 mammary tumor [1]; IP 90 mg/kg/dose): 0/5

COC(=O)CCC(=O)Oc1c(Cl)c(OC)nc(C(Cl)(Cl)Cl)c1Cl [DM-CMP-PEN]
Tumor-Free-Surv/Total (human MX-1 mammary tumor [2]; IP 135 mg/kg/dose, Days 11-15): 3/5
Tumor-Free-Surv/Total (human MX-1 mammary tumor [2]; [3]): 2/5
Median % ILS (dying mice only) (human MX-1 mammary tumor [1]; IP 90 mg/kg/dose): +87%
Median % ILS (dying mice only) (human MX-1 mammary tumor [1]; oral (gavage) 90 mg/kg/dose): +76%

COc1nc(C(Cl)(Cl)Cl)c(Cl)c(OC(=O)C(Cl)Cl)c1Cl [DM-DCA-PEN]
Tumor-Free-Surv/Total (human MX-1 mammary tumor [2]; IP 135 mg/kg/dose, Days 12-16): 2/5
